Usually IC50 stands for the midpoint of a concentration-inhibition curve.

Several values for one entry are separate records, joined by “and”; a condition that tells them apart may be missing. Identical values can stand only once. Like-named read-outs stand apart in the source and are kept apart here.

The test system of data set [1] is OVCAR-3 cells. Description: tumor growth of OVCAR-3 cells in nude mice. It is filed as in vivo. To be noted: cis-platin 4 μg/kg IP 3 times a week for 2 weeks, then 1 week no treatment; one mouse. How it is done:
The following protocol was developed for examining tumor growth using OVCAR-3 cells and nude mice: OVCAR-3 cells (15 million/injection) were inoculated under upper arm region of nude mice. Visible lumps appeared after 25 days. The tumors were measurable at about 35 days after inoculation and animals were then either treated with cis-platin at 4 μg/kg body weight administered by IP injection 3 times a week for 2 weeks, followed by 1 week with no treatment or treated with saline solution alone as control. […] A photograph of the tumors before and after cis-platin treatment is also shown.

The test system of the next data set is OVCA 429 cells. Particulars: for 429: increased sensitivity to cis-platin: OVCA 429 cells with specific siRNA.
For data set [2], the system named is OVCAR-3 cells. Description: MTT assay, cis-platin sensitivity with siRNA. Particulars: OVCAR-3 cells with specific siRNA. In kind it is cell-based, human. (In general: Tetrazolium assays rely on reduction of a dye to a coloured formazan, in cell work by metabolically active cells.)
The next data set has as its system Vinexin 13 (AF037261). Description: siRNA-mediated knockdown of gene expression. In kind it is cell-based, human. Particulars: OVCA 429 cells.
The test system of data set [3] is zinc finger protein 262/MYM (AB007885). Description: siRNA-mediated knockdown of gene expression. Particulars: OVCA 429 cells. It is filed as cell-based, human.
Another data set relates to eIF5 (U49436). Description: siRNA-mediated knockdown of gene expression. In kind it is cell-based, human. Particulars: OVCA 429 cell.

Regarding `N.N.[Cl][Pt][Cl]` [cis-platin], in the data set with OVCAR-3 cells [1], the tumor size result is listed as “stabilization of the tumor size”. The IC50 with OVCA 429 cells (read-out: IC50 of cis-platin alone, OVCA 429, 4 hours exposure (FIG. 40)) is approximately 100 µM; in the data set with OVCA 429 cells (read-out: IC50 of cis-platin, controls without specific siRNA or inhibitor, OVCA 429, 24 hour exposure, siPORT only or sense strand only), 25 to 50 µM and 25 µM and ~25 µM.
With “Vinexin β siRNA #2: siRNA to Vinexin (AF037261); target sequence AAGAGTTACCTAGAAGCACCT (guide AAGAGTTACCTAGAAGCACCT; target site or template, no part of the molecule; listed as DNA, chemistry not given here; listed as Homo Sapiens)”, the “OVCAR-3: increased sensitivity to cis-platin” value (shortened to “OVCAR-3: increased sensitivity”) in the data set with OVCAR-3 cells [2] is recorded as “yes”. Further, the “reduction of Vinexin mRNA levels compared to control” value in the data set with Vinexin 13 (AF037261) is reported as “approximately 50%”. Further, the “429: increased sensitivity to cis-platin” value with OVCA 429 cells was “no”.
For “Zinc finger protein 262/MYM siRNA #3: siRNA to zinc finger protein 262/MYM; target sequence AAAATATGGGAACCTACAATA (guide AAAATATGGGAACCTACAATA; target site or template, no part of the molecule; listed as DNA, chemistry not given here; listed as Homo Sapiens)”, the “OVCAR-3: increased sensitivity” value with OVCAR-3 cells [2] is “yes”. In addition, the “429: increased sensitivity to cis-platin” value with OVCA 429 cells is “yes”. For the same compound, in data set [3], the “reduction of zinc finger protein 262/MYM mRNA levels compared to control” value was “approximately 45%”.
“eIF5 siRNA #1: siRNA to eIF5; target sequence AATGACCGTTACATTGTCAAT (guide AATGACCGTTACATTGTCAAT; target site or template, no part of the molecule; listed as DNA, chemistry not given here; listed as Homo Sapiens)”: the “OVCAR-3: increased sensitivity” value with OVCAR-3 cells [2] was “yes”. In the data set with OVCA 429 cells, the “429: increased sensitivity to cis-platin” value is reported as “yes”. The “reduction of eIF5 mRNA levels compared to control” value in the data set with eIF5 (U49436) is “approximately 59%”.

The values above are taken from patent publication US8192935B2, “Methods for assessing cisplatin resistance, disease progression, and treatment efficacy in ovarian cancer as related to MetAP2 expression” (The Penn State Research Foundation, priority 2003, dated 2012).
